Experimental data taken from article PMC11149885 (PLOS ONE, 2024).
Read-outs that look alike come from different tables or passages of the source.

What was measured:
VEGFR3 [1] = molecular target: T1, VEGFR3 (Homo sapiens, UniProt P35916); experiment: HotSpot kinase screen; type: biochemical; conditions: 10μM ATP
T1 construct: purchased Millipore Corporation (Dundee, Scotland) or Reaction Biology Corporation (contract assay)
Experimental: (§1) Measurement of kinase activity was performed by Reaction Biology Corporation (Reaction Biology Corporation, Malvern, PA), using the HotSpot™ assay. The screen focused on RTKs reported in the literature to play a major role in the regulation of angiogenesis (VEGFR1, VEGFR2, and VEGFR3; fibroblast growth factor receptor [FGFR] 1, 2, and 3; and platelet-derived growth factor receptor beta [PDGFRβ]) as well as an RTK essential for maintaining blood vessel stability (TIE2). For the profiling, specific kinase/substrate pairs and required cofactors were prepared in a reaction buffer (20mM Hepes [pH 7.5], 10mM MgCl2, 1mM EGTA, 0.02% Brij35, 0.02 mg/mL BSA, 0.1mM Na3VO4, 2mM DTT, 1% dimethyl sulfoxide [DMSO]). TKI compounds were diluted to 10μM and 1μM concentrations for the screens and after addition to the reaction buffer incubated for 20 minutes, followed by the addition of a mixture of ATP (Sigma, St. Louis, MO) and ^33P-ATP (Perkin Elmer, Waltham, MA) to a final ATP concentration of 10μM. Reactions were carried out at room temperature for 2 hours, followed by spotting of the reactions onto P81 ion exchange filter paper (Whatman Inc., Piscataway, NJ). Unbound phosphate was removed by extensive washing of the filters. […] Kinome TREEspot images representing levels of inhibition were prepared using Kinome Mapper (https://www.reactionbiology.com/resources/tools/kinase-mapper).

FGFR2 = molecular target: T2, FGFR2 (Homo sapiens, UniProt P21802); experiment: HotSpot kinase screen; type: biochemical; conditions: 10μM ATP
T2 construct: purchased Reaction Biology Corporation (contract assay)
T2 sequence (P21802 22-821): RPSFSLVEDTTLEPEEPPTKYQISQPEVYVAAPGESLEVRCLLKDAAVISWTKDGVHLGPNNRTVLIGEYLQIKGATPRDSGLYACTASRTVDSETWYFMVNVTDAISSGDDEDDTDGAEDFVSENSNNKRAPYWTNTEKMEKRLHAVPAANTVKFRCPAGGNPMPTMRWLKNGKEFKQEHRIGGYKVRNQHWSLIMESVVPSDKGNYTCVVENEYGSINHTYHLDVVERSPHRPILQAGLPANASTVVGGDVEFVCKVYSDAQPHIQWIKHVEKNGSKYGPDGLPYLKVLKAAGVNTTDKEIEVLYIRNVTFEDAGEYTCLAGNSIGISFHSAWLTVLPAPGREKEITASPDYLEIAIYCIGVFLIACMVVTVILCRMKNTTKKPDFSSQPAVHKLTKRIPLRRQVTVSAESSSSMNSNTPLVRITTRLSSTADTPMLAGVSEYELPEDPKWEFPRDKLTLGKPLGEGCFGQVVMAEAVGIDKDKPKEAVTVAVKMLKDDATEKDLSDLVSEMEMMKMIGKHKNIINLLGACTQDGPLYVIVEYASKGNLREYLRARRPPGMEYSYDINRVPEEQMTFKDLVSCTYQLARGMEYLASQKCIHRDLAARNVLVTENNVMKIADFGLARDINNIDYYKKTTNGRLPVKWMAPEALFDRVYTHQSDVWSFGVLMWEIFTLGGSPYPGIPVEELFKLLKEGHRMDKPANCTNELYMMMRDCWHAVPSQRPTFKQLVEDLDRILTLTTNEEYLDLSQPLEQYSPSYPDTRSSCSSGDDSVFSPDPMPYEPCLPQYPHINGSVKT
Experimental: as §1

VEGFR2 [2] = molecular target: T3, VEGFR2 (Homo sapiens, UniProt P35968); conditions: cited from earlier work
T3 construct: purchased Millipore Corporation (Dundee, Scotland) or Reaction Biology Corporation (contract assay)
T3 sequence (P35968 20-1356): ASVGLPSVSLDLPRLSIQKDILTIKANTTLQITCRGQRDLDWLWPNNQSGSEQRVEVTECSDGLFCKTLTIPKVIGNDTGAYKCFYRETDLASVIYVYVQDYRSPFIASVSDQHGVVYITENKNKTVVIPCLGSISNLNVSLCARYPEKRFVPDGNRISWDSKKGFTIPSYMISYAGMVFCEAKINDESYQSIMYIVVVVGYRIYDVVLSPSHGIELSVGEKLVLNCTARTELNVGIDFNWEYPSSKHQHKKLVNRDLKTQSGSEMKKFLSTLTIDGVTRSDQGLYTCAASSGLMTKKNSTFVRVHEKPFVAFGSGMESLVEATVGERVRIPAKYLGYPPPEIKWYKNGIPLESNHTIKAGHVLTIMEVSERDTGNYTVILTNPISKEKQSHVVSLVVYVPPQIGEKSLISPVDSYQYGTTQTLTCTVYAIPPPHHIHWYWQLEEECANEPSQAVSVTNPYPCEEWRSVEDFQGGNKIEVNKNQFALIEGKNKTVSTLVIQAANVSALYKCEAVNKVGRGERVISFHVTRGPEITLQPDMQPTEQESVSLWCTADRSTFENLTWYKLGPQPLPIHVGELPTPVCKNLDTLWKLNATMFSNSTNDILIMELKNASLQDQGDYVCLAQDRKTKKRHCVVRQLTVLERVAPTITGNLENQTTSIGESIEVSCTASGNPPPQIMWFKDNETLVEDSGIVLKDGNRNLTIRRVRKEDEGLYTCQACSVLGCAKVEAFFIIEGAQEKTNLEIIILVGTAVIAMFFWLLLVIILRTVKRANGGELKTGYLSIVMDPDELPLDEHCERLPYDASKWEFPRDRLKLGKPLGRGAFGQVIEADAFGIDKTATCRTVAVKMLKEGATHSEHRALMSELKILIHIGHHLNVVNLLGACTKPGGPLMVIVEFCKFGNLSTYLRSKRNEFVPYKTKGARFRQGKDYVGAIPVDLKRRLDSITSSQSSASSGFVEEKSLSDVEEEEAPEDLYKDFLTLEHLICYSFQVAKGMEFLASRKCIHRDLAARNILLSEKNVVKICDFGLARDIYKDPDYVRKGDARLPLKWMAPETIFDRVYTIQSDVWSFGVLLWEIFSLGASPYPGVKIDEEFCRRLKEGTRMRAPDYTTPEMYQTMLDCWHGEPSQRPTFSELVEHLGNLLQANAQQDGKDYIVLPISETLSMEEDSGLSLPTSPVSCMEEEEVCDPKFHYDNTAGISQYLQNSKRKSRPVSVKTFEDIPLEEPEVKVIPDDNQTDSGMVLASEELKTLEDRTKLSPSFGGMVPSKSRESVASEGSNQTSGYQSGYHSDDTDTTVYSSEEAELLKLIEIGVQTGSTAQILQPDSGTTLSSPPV

VEGFR2 [3] = molecular target: T3, VEGFR2; experiment: Previously reported IC50 (literature); type: biochemical; conditions: nM value converted, S2 Fig legend
VEGFR2 [4] = molecular target: T3, VEGFR2; experiment: HotSpot kinase screen; type: biochemical; conditions: 10μM ATP
synthetic melanin = experiment: in vitro
PDGFRβ = molecular target: T4, PDGFRβ (Homo sapiens, UniProt P09619); experiment: HotSpot kinase screen; type: biochemical; conditions: 10μM ATP
T4 construct: purchased Reaction Biology Corporation (contract assay)
T4 sequence (P09619 33-1106): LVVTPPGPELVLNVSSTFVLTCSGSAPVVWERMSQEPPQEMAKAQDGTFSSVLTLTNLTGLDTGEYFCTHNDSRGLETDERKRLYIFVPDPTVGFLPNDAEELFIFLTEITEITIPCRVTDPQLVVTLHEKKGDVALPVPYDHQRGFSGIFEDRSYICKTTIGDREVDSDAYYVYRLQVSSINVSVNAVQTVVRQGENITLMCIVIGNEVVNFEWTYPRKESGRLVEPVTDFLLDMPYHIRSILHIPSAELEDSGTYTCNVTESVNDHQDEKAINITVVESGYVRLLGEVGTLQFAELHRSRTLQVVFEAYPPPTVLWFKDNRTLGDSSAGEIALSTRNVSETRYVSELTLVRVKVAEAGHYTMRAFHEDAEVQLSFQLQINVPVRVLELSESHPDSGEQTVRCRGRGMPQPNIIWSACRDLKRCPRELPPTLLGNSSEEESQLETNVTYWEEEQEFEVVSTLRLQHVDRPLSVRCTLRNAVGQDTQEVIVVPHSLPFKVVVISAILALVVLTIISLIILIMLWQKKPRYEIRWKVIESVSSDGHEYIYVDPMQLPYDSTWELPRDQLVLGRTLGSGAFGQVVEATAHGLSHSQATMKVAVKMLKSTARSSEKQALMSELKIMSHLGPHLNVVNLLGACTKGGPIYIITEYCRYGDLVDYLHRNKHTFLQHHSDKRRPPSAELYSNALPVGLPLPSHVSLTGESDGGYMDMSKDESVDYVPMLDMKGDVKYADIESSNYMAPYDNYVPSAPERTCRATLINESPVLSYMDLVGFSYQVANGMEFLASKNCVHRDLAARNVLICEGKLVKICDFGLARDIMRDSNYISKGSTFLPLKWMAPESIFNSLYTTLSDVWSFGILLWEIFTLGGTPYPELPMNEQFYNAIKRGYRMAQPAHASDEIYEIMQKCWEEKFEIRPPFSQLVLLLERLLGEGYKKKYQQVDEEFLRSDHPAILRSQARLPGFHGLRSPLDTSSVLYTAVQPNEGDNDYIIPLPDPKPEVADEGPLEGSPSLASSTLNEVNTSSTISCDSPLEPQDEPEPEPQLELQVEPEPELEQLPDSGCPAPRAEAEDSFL

VEGFR3 [5] = molecular target: T1, VEGFR3; experiment: Ten-dose IC50 measurement; type: biochemical; conditions: 10μM ATP
[6] = tested on: VEGF-A–induced sprouting of HUVECs; experiment: HUVEC spheroid sprouting assay; type: cell-based, human; conditions: for cumulative sprout length per spheroid (CSL), mean: 25 ng/mL VEGF-165, 24 hours
Experimental: The three TKI compounds were tested by Reaction Biology Europe (Freiburg, Germany) in the spheroid-based cellular angiogenesis assay to determine their effect on VEGF-A–induced sprouting of HUVECs. Primary HUVECs from pooled donors at passage 3 to 4 (PromoCell, Heidelberg, Germany) were grown in endothelial cell growth and basal medium (ECGM/ECBM, PromoCell). Test compounds were prepared as 100-fold concentrated stock solutions in DMSO and pre-diluted in basal medium. HUVECs were stimulated using 25 ng/mL VEGF-165 (Reaction Biology Europe, Freiburg, Germany) pre-diluted in basal medium.
Spheroids were prepared as described by pipetting 400 HUVECs in a hanging drop on plastic dishes to allow overnight spheroid aggregation. Fifty HUVEC spheroids were seeded in 0.9 mL of a collagen gel and pipetted into individual wells of a 24-well plate to allow polymerization. Test compounds and VEGF-165 were added after 30 minutes by pipetting 100 μL of a ten-fold concentrated solution onto the polymerized gel. Plates were incubated at 37°C for 24 hours, and cells were fixed by adding 4% paraformaldehyde (Roth, Karlsruhe, Germany). Sprouting intensity of HUVEC spheroids treated with the test samples was quantitated using an image analysis system to determine the cumulative sprout length (CSL) per spheroid. Images of single spheroids were captured using an inverted microscope and the digital imaging software NIS-Elements BR 3.0 (Nikon). Spheroid pictures were uploaded to Wimasis (www.wimasis.com) for image analysis. The CSL of each spheroid was determined using the imaging analysis tool WimSprout. The mean CSL of ten randomly selected spheroids was analyzed as an individual data point.

T1 sequence (P35916 25-1363): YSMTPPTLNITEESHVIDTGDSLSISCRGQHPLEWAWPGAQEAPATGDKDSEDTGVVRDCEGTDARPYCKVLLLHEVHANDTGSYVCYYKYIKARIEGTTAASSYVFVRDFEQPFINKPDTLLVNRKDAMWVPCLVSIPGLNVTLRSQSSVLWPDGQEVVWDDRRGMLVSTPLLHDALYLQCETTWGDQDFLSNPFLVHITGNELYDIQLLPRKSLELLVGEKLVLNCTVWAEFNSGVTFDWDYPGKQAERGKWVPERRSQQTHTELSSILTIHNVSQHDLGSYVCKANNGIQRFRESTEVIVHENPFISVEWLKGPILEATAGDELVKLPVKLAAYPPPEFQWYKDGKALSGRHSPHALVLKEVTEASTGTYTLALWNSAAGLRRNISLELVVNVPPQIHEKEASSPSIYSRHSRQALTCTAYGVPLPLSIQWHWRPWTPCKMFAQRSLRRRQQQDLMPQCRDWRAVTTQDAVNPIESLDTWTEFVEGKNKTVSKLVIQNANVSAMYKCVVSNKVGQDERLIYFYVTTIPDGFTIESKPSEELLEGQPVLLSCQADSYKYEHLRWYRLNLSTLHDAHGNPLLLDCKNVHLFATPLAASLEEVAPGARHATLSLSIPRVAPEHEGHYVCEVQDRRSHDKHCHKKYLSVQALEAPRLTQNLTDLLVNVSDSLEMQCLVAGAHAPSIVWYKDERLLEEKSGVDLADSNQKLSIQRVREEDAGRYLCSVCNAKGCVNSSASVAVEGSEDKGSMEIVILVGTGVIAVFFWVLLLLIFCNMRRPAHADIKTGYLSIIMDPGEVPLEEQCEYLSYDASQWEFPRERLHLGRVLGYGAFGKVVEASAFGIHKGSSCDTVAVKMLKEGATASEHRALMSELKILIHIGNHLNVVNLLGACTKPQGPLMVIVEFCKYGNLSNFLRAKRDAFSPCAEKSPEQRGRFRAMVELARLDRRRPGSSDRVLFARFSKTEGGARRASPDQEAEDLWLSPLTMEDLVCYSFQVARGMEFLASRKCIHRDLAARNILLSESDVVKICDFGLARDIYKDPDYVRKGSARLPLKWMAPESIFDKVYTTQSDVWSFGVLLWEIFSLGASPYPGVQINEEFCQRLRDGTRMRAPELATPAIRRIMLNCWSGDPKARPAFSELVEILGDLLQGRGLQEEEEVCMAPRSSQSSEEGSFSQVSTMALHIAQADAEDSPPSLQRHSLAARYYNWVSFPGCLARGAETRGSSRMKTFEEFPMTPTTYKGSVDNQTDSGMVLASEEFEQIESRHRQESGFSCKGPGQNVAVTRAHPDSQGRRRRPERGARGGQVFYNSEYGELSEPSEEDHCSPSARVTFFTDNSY

Cc1[nH]c(/C=C2\C(=O)Nc3ccc(F)cc32)c(C)c1C(=O)N[C@H]1CCN(C(=O)N(C)C)C1 [Vorolanib]
Avg % Inhibition VEGFR3 (VEGFR3 [1]; 1uM TKI): 90.14%
Avg % Inhibition VEGFR3 (VEGFR3 [1]; 10uM TKI): 98.55%
Avg % Inhibition FGFR2 (FGFR2; 1uM TKI): 56.64%
Avg % Inhibition FGFR2 (FGFR2; 10uM TKI): 90.82%
IC50 (VEGFR2 [2]; determined by Millipore Corporation prior to the study, read-out: VEGFR2 IC50 (used to set CAM doses)): 52 nM
IC50 (VEGFR2 [2]; previously reported, read-out: VEGFR2 IC50): 1.12 nM
IC50 (VEGFR2 [3]): 52.3 nM
Avg % Inhibition VEGFR2 (VEGFR2 [4]; 1uM TKI): 74.78%
Avg % Inhibition VEGFR2 (VEGFR2 [4]; 10uM TKI): 86.6%
fraction unbound at 1 h (synthetic melanin): 0.857
Avg % Inhibition PDGFRb (PDGFRβ; 1uM TKI): 83.57%
Avg % Inhibition PDGFRb (PDGFRβ; 10uM TKI): 94.8%
IC50 (VEGFR3 [5]; S1 Dataset, read-out: IC50 VEGFR3): 3.39e-08 M
%Activity VEGFR3 (VEGFR3 [5]; 1.00E-05 M TKI): 2.39%
%Activity VEGFR3 (VEGFR3 [5]; 1.11E-06 M TKI): 8.63%
%Activity VEGFR3 (VEGFR3 [5]; 1.23E-07 M TKI): 30.49%
%Activity VEGFR3 (VEGFR3 [5]; 1.37E-08 M TKI): 60.22%
%Activity VEGFR3 (VEGFR3 [5]; 1.52E-09 M TKI): 79.65%
%Activity VEGFR3 (VEGFR3 [5]; 3.33E-06 M TKI): 4.43%
%Activity VEGFR3 (VEGFR3 [5]; 3.70E-07 M TKI): 18.98%
%Activity VEGFR3 (VEGFR3 [5]; 4.12E-08 M TKI): 44.44%
%Activity VEGFR3 (VEGFR3 [5]; 4.57E-09 M TKI): 68.37%
%Activity VEGFR3 (VEGFR3 [5]; 5.08E-10 M TKI): 81.12%
IC50 (VEGFR3 [5]; Fig 3A inset, unit inferred, plot axes in (M), read-out: Compound IC50 data for VEGFR-3: IC50): 3.39e-08 M
cumulative sprout length per spheroid (CSL), mean ([6]; 1.00E-05 M TKI): 144
cumulative sprout length per spheroid (CSL), mean ([6]; 1.00E-06 M TKI): 242
cumulative sprout length per spheroid (CSL), mean ([6]; 1.00E-07 M TKI): 455
cumulative sprout length per spheroid (CSL), mean ([6]; 3.00E-06 M TKI): 269
cumulative sprout length per spheroid (CSL), mean ([6]; 3.00E-07 M TKI): 241
cumulative sprout length per spheroid (CSL), mean ([6]; 3.00E-08 M TKI): 992
vessel sprouting (representative spheroid images) ([6]; highest test concentration of 1×10^–5M): zero vessel sprouting
